The text below walks through data of EP1712550A2, “Substituted triazole diamine derivatives as kinase inhibitors” (priority 2000, dated 2002).

Assay [1] has as its target T1, CDK2 in complex with cyclin A (Homo sapiens, UniProt P24941).
T1 construct: purchased Upstate Biotech, Lake Placid, NY
The assay is described as follows: Kinase Selectivity Assay CDK2. The class given is biochemical.

The target of assay [2] is T2, EGFR (epidermal growth factor receptor) (Homo sapiens, UniProt P00533).
T2 construct: is purified from human A431 cell membranes (Sigma, St. Louis, MO, Cat.# E3641); purchased Sigma, St. Louis, MO E3641; host or cells: human A431 cell membranes (endogenous protein)
T2 sequence (P00533 25-1210): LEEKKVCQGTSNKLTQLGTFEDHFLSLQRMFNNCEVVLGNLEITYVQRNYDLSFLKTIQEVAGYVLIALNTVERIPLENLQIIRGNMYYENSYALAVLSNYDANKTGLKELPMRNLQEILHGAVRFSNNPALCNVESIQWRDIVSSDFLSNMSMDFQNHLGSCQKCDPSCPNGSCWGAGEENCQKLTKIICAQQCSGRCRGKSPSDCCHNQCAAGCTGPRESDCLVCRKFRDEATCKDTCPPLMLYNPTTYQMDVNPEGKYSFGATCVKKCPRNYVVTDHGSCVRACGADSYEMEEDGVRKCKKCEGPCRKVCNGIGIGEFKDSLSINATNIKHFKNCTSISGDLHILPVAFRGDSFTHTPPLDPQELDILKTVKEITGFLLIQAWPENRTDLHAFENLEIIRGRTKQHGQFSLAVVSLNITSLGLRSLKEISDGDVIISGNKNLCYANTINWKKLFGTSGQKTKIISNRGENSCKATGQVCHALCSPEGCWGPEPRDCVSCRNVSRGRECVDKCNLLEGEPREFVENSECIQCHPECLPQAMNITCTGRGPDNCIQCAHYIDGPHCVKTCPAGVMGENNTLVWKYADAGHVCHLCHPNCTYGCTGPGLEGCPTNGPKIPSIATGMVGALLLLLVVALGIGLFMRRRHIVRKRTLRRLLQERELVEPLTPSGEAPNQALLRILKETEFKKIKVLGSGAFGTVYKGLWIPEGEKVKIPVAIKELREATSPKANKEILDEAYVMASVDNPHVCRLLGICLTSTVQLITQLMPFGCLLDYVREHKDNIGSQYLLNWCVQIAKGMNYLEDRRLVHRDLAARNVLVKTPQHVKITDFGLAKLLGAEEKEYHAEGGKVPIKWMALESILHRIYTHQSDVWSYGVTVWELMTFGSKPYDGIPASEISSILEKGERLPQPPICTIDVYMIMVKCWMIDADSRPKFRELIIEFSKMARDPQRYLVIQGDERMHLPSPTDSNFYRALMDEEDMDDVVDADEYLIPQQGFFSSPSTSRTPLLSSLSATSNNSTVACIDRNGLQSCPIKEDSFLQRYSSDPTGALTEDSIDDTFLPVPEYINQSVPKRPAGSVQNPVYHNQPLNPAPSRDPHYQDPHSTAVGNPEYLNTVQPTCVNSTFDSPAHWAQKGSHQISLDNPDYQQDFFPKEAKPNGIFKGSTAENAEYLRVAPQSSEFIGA
The assay is described as follows: Kinase Selectivity Assay EGF-R. The class given is biochemical.

For assay [3], the system named is HeLa cervical adenocarcinoma. Briefly: Inhibition of Cell Proliferation, 14C-thymidine incorporation, HeLa. The class given is cell-based. To be noted: Homo sapiens; Cell Line HeLa. As to the method: (§1) The ability of a test compound to inhibit the proliferation of cell growth was determined by measuring incorporation of ^14C-labelled thymidine into newly synthesized DNA within the cells. This method was used on cell lines derived from carcinomas originating from several tissues such as HeLa cervical adenocarcinoma (American Type Culture Collection (ATCC), Virginia, Cat. #CCL-2), A375 malignant melanoma (ATCC CRL-1619), SK-OV-3 ovarian adenocarcinoma (ATCC HTB-77) HCT-116 colon carcinoma (CCL-247), PC-3 prostate adenocarcinoma (ATCC CRL-1435), and MDA-MB-231 (Xenogen Corp.) In this way the effect of a compound on cell growth of cells with many different phenotypes can be determined. Cells were trypsinized and counted and 3000-8000 cells were added to each well of a 96-well CytoStar tissue culture treated scintillating microplate (Amersham #RPNQ0160) in complete medium in a volume of 100 µl. Cells were incubated for 24 hours in complete medium at 37°C in an atmosphere containing 5% CO2. Next, 1 µl of test compound in 100% DMSO was added to the wells of the plate. DMSO only was added to control wells. Cells were incubated for 24 more hours in complete medium at 37°C in an atmosphere containing 5% CO2. Methyl^14C-thymidine 56 mCi/mmol (NEN #NEC568 or Amersham #CFA532) was diluted in complete medium and 0.2 uCi/well was added to each well of the CytoStar plate in a volume of 20 ul. The plate was incubated for 24 hours at 37°C plus 5% CO2 in drug plus ^14C-thymidine. The contents of the plate were discarded into a ^14C radioactive waste container by inverting the plate and the plate was washed twice with 200 µl PBS. 200 µl of PBS is added to each well. The top of the plate was sealed with a transparent plate sealer and a white plate backing sealer (Packard #6005199) was applied to the bottom of the plate. The degree of methyl ^14C-thymidine incorporation was quantified on a Packard Top Count.

The test system of a further assay is HCT-116 colon carcinoma. The assay is described as follows: Inhibition of Cell Proliferation, 14C-thymidine incorporation, HCT-116. The class given is cell-based. To be noted: Homo sapiens; Cell Line HCT-116. The protocol: as §1
For orientation: Uptake of a labelled nucleoside into DNA is a usual measure of proliferation.

Assay [4] concerns PC-3 prostate adenocarcinoma. The assay is described as follows: Inhibition of Cell Proliferation, 14C-thymidine incorporation, PC-3. The class given is cell-based. To be noted: Cell Line PC-3. As to the method:
as §1

For the next assay, the system named is MDA-MB-231. The assay is described as follows: Inhibition of Cell Proliferation, 14C-thymidine incorporation, MDA-MB-231. The assay is classed as cell-based. To be noted: Homo sapiens; Cell Line MDA-MB-231.
Another assay concerns the target T3, CDK1:Cyclin-B (Homo sapiens, UniProt P06493).
T3 construct: purchased New England Biolabs, Beverly, MA 6020; host or cells: insect cells
The assay is described as follows: CDK1 Screening Assay. To be noted: read-out: Kinase Assay (IC50 uM) CDK1. The assay is classed as biochemical. The protocol:
(§2) 70 µL of the kinase reaction mixture was dispensed into the well of a streptavidin coated FlashPlate™ (Cat. # SMP103, NEN, Boston, MA). Then 1 µL of test compound stock in 100% DMSO was added to the wells resulting in a final concentration of 1% DMSO in the reaction with a 100 µl final reaction volume. Next, CDK1:Cyclin-B protein was diluted in 50 mM Tris-HCl pH=8.0, 0.1% BSA at a concentration of 1 ng per µL and 30 µl (30ng enzyme per test well) was added to each well to initiate the reaction. The reaction was incubated for one hour at 30°C. At the end of the 1-hour incubation, the reaction was terminated by aspirating the reaction mixture from the plate and washing the wells twice with PBS containing 100 mM EDTA. The histone-H1 biotinylated peptide substrate became immobilized on the Flashplate™ and the incorporation of ^33P-γ-ATP was measured by reading the plate on a scintillation counter. Inhibition of the enzymatic activity of CDK1 was measured by observing a reduced amount of ^33P-γ-ATP incorporated into the immobilized peptide. […]

For assay [5], the target named is T4, HER2 (human epidermal growth factor receptor-2) (Homo sapiens, UniProt P04626).
T4 construct: begins at amino acid 676 followed by the remainder of the HER2 cytoplasmic domain; polyhistidine (N)
T4 sequence (P04626 676-1255 limits assumed): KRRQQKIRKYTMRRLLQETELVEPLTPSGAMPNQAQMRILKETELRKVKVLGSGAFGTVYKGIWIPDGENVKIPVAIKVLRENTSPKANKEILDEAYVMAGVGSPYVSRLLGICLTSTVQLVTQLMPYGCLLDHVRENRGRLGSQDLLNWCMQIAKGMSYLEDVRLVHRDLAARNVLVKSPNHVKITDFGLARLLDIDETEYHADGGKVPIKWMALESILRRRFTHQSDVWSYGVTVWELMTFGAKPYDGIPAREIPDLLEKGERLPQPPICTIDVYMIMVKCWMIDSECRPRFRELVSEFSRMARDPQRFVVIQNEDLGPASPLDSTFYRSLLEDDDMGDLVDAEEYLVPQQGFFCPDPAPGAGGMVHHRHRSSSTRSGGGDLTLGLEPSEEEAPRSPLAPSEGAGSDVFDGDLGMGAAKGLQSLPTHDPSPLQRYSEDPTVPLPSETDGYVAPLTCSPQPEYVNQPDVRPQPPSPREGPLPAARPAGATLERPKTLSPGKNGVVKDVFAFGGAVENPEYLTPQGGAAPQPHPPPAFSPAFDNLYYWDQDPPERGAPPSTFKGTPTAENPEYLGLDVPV
The assay is described as follows: Kinase Selectivity Assay HER2. To be noted: read-out: Kinase Assay (IC50 uM) HER2 Kinase. The class given is biochemical.

The target in another assay is PKC (protein kinase-C). The assay is described as follows: Kinase Selectivity Assay PKC. The assay is classed as biochemical, human.
The target of assay [6] is T5, VEGF-R (vascular endothelial growth factor receptor-2) (Rattus norvegicus, UniProt O08775).
T5 construct: 6xHis (polyhistidine) (N)
T5 sequence (O08775 786-1343): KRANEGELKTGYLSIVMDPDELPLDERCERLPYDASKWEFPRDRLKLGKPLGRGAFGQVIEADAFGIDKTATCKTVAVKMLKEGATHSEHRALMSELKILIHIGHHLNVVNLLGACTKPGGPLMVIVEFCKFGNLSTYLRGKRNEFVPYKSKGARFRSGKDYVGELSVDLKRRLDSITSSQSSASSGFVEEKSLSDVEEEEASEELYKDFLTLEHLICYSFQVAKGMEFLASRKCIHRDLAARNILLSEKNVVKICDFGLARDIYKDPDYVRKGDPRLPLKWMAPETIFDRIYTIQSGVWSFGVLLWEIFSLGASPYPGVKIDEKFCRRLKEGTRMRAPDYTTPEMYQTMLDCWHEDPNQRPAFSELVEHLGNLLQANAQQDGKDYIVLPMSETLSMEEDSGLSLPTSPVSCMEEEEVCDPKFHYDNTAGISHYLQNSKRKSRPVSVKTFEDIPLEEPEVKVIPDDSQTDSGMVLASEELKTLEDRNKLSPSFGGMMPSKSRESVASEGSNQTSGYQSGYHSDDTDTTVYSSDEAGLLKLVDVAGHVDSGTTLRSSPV
The assay is described as follows: VEGF-R Screening Assay. The class given is biochemical. To be noted: read-out: Kinase Assay (IC50 uM) VEGF-R. The protocol: as §2, with “a 100 µL final reaction” for “a 100 µl final reaction”, “volume. Next, soluble rat tyrosine kinase containing an N-terminal 6XHIS tag was diluted” for “volume. Next, CDK1:Cyclin-B protein was diluted”, “concentration of 5 ng per” for “concentration of 1 ng per”, “and 30 µL (150 ng enzyme per” for “and 30 µl (30ng enzyme per”, “EDTA. The PLC1 biotinylated peptide” for “EDTA. The histone-H1 biotinylated peptide”, “activity of the VEGF-R was measured” for “activity of CDK1 was measured”

In the next assay the test system is A375 malignant melanoma. The assay is described as follows: Inhibition of Cell Proliferation, 14C-thymidine incorporation, A375. The assay is classed as cell-based. To be noted: Homo sapiens, A-375; Cell Line A375. As to the method:
as §1

A further assay addresses Insulin Receptor Kinase (Homo sapiens, UniProt P06213). Briefly: Kinase Selectivity Assay Insulin Receptor Kinase. To be noted: read-out: Kinase Assay (IC50 uM) Insulin R Kinase. The class given is biochemical.
Setting [7] is: read-out: Kinase Assay (IC50 uM) EGF-R.

The structures appear in SMILES notation. Where two headings read alike, the source gives them in different places.

T3 sequence (P06493 whole entry): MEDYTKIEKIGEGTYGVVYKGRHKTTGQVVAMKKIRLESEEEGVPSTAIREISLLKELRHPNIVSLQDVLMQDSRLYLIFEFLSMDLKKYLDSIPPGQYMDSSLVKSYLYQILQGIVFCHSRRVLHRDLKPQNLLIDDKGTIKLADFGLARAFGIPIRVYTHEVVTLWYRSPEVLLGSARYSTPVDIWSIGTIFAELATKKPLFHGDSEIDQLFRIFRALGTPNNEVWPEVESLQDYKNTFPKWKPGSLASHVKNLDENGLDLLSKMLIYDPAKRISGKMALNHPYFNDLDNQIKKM
T3 sequence (P14635 whole entry partner): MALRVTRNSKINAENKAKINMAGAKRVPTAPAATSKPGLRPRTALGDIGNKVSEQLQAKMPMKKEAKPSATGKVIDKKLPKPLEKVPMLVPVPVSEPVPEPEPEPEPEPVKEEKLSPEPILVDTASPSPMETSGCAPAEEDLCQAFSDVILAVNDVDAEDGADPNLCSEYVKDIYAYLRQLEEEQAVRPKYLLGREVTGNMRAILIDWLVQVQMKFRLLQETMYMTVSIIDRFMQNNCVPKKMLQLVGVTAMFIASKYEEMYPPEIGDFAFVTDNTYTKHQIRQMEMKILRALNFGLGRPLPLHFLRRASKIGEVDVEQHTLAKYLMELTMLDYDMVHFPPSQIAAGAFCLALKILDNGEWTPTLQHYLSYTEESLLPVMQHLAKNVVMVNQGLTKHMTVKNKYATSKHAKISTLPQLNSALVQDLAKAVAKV
Sequence of Insulin Receptor Kinase (P06213 980-1352): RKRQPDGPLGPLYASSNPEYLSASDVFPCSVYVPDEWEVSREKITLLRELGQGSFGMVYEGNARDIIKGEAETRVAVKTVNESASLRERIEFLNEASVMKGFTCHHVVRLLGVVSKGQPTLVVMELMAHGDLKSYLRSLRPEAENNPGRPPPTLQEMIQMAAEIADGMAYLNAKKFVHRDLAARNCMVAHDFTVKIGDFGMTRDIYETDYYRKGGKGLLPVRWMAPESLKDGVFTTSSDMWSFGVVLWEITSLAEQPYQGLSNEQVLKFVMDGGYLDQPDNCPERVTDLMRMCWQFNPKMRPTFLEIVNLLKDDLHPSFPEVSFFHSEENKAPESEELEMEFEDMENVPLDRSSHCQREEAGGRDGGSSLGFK
Procedure for MDA-MB-231: The ability of a test compound to inhibit the proliferation of cell growth was determined by measuring incorporation of ^14C-labelled thymidine into newly synthesized DNA within the cells. […] Cells were trypsinized and counted and 3000-8000 cells were added to each well of a 96-well CytoStar tissue culture treated scintillating microplate (Amersham #RPNQ0160) in complete medium in a volume of 100 µl. Cells were incubated for 24 hours in complete medium at 37°C in an atmosphere containing 5% CO2. Next, 1 µl of test compound in 100% DMSO was added to the wells of the plate. DMSO only was added to control wells. Cells were incubated for 24 more hours in complete medium at 37°C in an atmosphere containing 5% CO2. […] The plate was incubated for 24 hours at 37°C plus 5% CO2 in drug plus ^14C-thymidine. The contents of the plate were discarded into a ^14C radioactive waste container by inverting the plate and the plate was washed twice with 200 µl PBS. 200 µl of PBS is added to each well. […] The degree of methyl ^14C-thymidine incorporation was quantified on a Packard Top Count.

Take `Nc1nc(Nc2cccc(Cl)c2)n(C(=O)c2c(F)cccc2F)n1` [Cpd 126, N^5-(3-chlorophenyl)-1-(2,6-difluorobenzoyl)-1H-1,2,4-triazole-3,5-diamine]: the IC50 (usually the concentration that gives 50% inhibition) in assay [1] is more than 100 µM.

Regarding `Cc1cc(C)c(C(=O)n2nc(Nc3ccc(S(N)(=O)=O)cc3)nc2N)s1` [Cpd 33, 4-[[5-amino-1-[(3,5-dimethyl-2-thienyl)carbonyl]-1H-1,2,4-triazol-3-yl]amino]-benzenesulfonamide], the IC50 in assay [2] (Kinase Selectivity, Table 2, read-out: EGF-R IC50) is more than 100 µM; in assay [3], 72 nM; in the assay with HCT-116 colon carcinoma, 27 nM; in assay [4] it was 37 nM; in the assay with MDA-MB-231, 171 nM.

Take `Cc1ccsc1C(=O)n1nc(Nc2ccc(-n3cncn3)cc2)nc1N` [Cpd 99, 1-[(3-methyl-2-thienyl)carbonyl]-N^3-[4-(1H-1,2,4-triazol-1-yl)phenyl]-1H-1,2,4-triazole-3,5-diamine]: the IC50 on CDK1:Cyclin-B was 0.366 µM; in assay [5], 0.095 µM; against PKC (protein kinase-C), more than 100 µM; in [2] (setting [7]), more than 100 µM.

Consider `Nc1nc(Nc2cccc(Cl)c2)n(C(=O)c2ccccc2)n1` [Cpd 127, 1-benzoyl-N^5-(3-chlorophenyl)-1H-1,2,4-triazole-3,5-diamine], for which the IC50 in assay [1] is more than 100 µM.

Turning to `CCc1ccc(C(=O)n2nc(Nc3ccc(S(=O)(=O)Nc4ccccn4)cc3)nc2N)s1` [Cpd 119, 4-[[5-amino-1-[(5-ethyl-2-thienyl)carbonyl]-1H-1,2,4-triazol-3-yl]amino]-N-(2-pyridinyl)-benzenesulfonamide], the IC50 on CDK1:Cyclin-B is 0.067 µM; in [6], 0.057 µM; at PKC (protein kinase-C) it was more than 100 µM; in assay [3], 146 nM; in the assay on A375 malignant melanoma it was 199 nM; with HCT-116 colon carcinoma, 117 nM.

With `Cc1cc(C)c(C(=O)n2nc(Nc3ccc(NS(C)(=O)=O)cc3)nc2N)s1` [Cpd 108, N-[4-[[5-amino-1-[(3,5-dimethyl-2-thienyl)carbonyl]-1H-1,2,4-triazol-3-yl]amino]phenyl]-methanesulfonamide], the IC50 in [2] (setting [7]) is more than 100 µM; at Insulin Receptor Kinase, 0.81 µM; in assay [3] it was 221 nM; in the assay on A375 malignant melanoma, 259 nM; in the assay with HCT-116 colon carcinoma, 76 nM.
